# Measured values: publication PMC3608651, “A Broad Profile of Co-Dominant Epitopes Shapes the Peripheral Mycobacterium tuberculosis Specific CD8+ T-Cell Immune Response in South African Patients with Active Tuberculosis” (PLoS ONE, 2013)
# Read-outs that look alike come from different tables or passages of the source.
# How the values were obtained:
# Assay type in all cases: binding
# HLA-B*58:01 = HLA-B*58:01 (Homo sapiens, UniProt P01889, A329T/C349S/D201E/D98Y/E176V/E187L/E204Q/E69T/G107R/I218V/I90N/K202T/L105A/L119I/N104I/N87E/Q89R/Q94S/R106L/R155S/R180L/R86G/S101N/S121R/S35A/S48A/T118I/V127L/V306I/V36M/Y140S/Y91M); conditions: duplicated experiments, positive binder >40%
# HLA-B*07:02 = HLA-B*07:02 (Homo sapiens, UniProt P01889); conditions: percent relative the binding of positive control peptide […]; duplicated experiments; positive binder >40%
# HLA-A*30:02 [1] = target: T1, HLA-A*30:02 (Homo sapiens, UniProt P04439, D101N/D140H/D185E/E176R/F33S/G80R/H175R/K168Q/Q94H/R138E/R41S/V100E); conditions: time points 0-8 h
# HLA-A*30:02 [2] = target: T1, HLA-A*30:02; conditions: duplicated experiments, positive binder >40%
# HLA-A*68:01 = HLA-A*68:01 (Homo sapiens, UniProt P04439, A269V/D185E/E176V/E277Q/E87N/F33Y/G231S/I121M/I166T/I218V/L180W/L300P/L318F/N151K/P208A/P217A/Q86R/R169H/T345S); conditions: duplicated experiments, positive binder >40%
# HLA-C*07:01 = HLA-C*07:01 (Homo sapiens, UniProt P10321, K90N/S123Y); conditions: duplicated experiments, positive binder >40%
# HLA-A*30:01 = HLA-A*30:01 (Homo sapiens, UniProt P04439, D140H/D185E/E176W/F33S/G80R/H175R/K168Q/R138E/R41S); conditions: duplicated experiments, positive binder >40%
# HLA-A*30:02 [3] = target: T1, HLA-A*30:02
# HLA-A*02:01 = HLA-A*02:01 (Homo sapiens, UniProt P04439, D140Y/D185E/D98H/E176V/E277Q/G131W/G231S/I119V/I121R/I166T/I218V/L300P/L318F/N151K/N90K/P208A/P217A/Q86G/Q94H/R138H/R169H/T345S); conditions: plate-bound monomer 0.5 µg/ml, duplicated experiments, positive binder >40%
# HLA-A*24:02 = HLA-A*24:02 (Homo sapiens, UniProt P04439, D101N/D140Y/D185E/E176V/E190D/F33S/G103R/G107R/I119L/I121M/I306V/K335N/L105A/L180Q/L300P/N151K/N90K/Q86E/Q94H/R106L/R138H/R89G/T104I/T345S/V100E/W191G/Y123F); conditions: duplicated experiments, positive binder >40%
# [4] = percent relative the binding of positive control peptide IAMESIVIW
# [5] = percent relative the binding of positive control peptide KIQNFRVYY
# [6] = percent relative the binding of positive control peptide KTGGPIYKR
# [7] = percent relative the binding of positive control peptide KYFDEHYEY
# [8] = percent relative the binding of positive control peptide KTKDIVNGL
# [9] = peptide titrated 10−4 to 10−9 M
# [10] = percent relative the binding of positive control peptide FLPSDFFPSV
# [11] = percent relative the binding of positive control peptide RYLKDQQLL
# [12] = percent relative the binding of positive control peptide […]
Substance,Bind B*58:01 (HLA-B*58:01; [4]) [%],Bind B*07:02 (HLA-B*07:02) [%],O-rate A*30:02 (t1/2) (HLA-A*30:02 [1]) [h],Bind A*30:02 (HLA-A*30:02 [2]; [5]) [%],Bind A*68:01 (HLA-A*68:01; [6]) [%],Bind C*07:01 (HLA-C*07:01; [7]) [%],Bind A*30:01 (HLA-A*30:01; [8]) [%],Aff A*30:02 (ED50) (HLA-A*30:02 [3]; [9]) [M],Bind A*02:01 (HLA-A*02:01; [10]) [%],Bind A*24:02 (HLA-A*24:02; [11]) [%],Bind B*58:01 (HLA-B*58:01; [12]) [%],Bind A*30:02 (HLA-A*30:02 [2]; [12]) [%],Bind A*68:01 (HLA-A*68:01; [12]) [%],Bind C*07:01 (HLA-C*07:01; [12]) [%],Bind A*30:01 (HLA-A*30:01; [12]) [%],Aff A*30:02 (ED50) (HLA-A*30:02 [3]),Bind A*02:01 (HLA-A*02:01; [12]) [%],Bind A*24:02 (HLA-A*24:02; [12]) [%]
AGQAMASTE [Rv3875_79–87],11,9,2.3,58,13,28,20,5e-09,0,0,,,,,,,,
KFQDAYNAA,,0,0.7,,,,,,,,0,113,0,0,0,8e-06 M,19,0
AAAWGGSGS [Rv3875_40-48],8,4,1.1,129,15,29,29,5e-09,8,0,,,,,,,,
ATATELNNA [Rv3875_60–68],0,12,3.8,67,0,0,0,3e-07,31,0,,,,,,,,
SNLKFQDAY,,0,1.6,,,,,,,,14,124,18,52,0,2e-07 M,11,23
RSSNLKFQD,,3,1.6,,,,,,,,14,104,11,64,0,1E -05 M,11,26
MKGDLQSSL,,17,2.8,,,,,,,,0,90,19,63,14,2e-05 M,16,22
SAMILAAYH,,7,2.2,,,,,,,,0,111,69,15,0,4e-08 M,9,0
MTEQQWNFA [Rv3875_1–9],2,2,1.4,52,25,0,0,2e-08,13,0,,,,,,,,
KAADMW GPS,,18,0.8,,,,,,,,21,103,17,34,1,7E -09 M,33,4
IYAGSLSAL,,83,0.5,,,,,,,,16,116,4,0,0,4E -06 M,44,107
PAVYLLDGL,,63,1,,,,,,,,0,120,2,17,0,9E -08 M,9,38
AAWGGSGSE [Rv3875_41–49],9,4,1.5,167,29,29,18,3e-07,29,2,,,,,,,,
VFNFPPNGT,,0,1.2,,,,,,,,33,113,3,0,3,3e-05 M,34,25
CGKAGCQT Y,,8,3,,,,,,,,35,138,60,5,28,8E -08 M,44,32
GVQQKWDAT [Rv3875_53–61],6,10,1.3,78,0,9,9,3e-08,0,0,,,,,,,,
NLKFQDAYN,,0,0.4,,,,,,,,0,123,9,7,0,1e-05 M,8,0
AWGGSGSEA [Rv3875_42–50],6,6,1.7,90,11,29,16,8e-07,4,4,,,,,,,,
RTISEAGQA [Rv3875_74–82],34,11,2,98,4,8,19,3e-08,18,0,,,,,,,,
QQKWDATAT [Rv3875_55–63],8,9,1.7,60,9,4,29,9e-08,0,0,,,,,,,,
SAIQGNVTS [Rv3875_16–24],12,4,0.9,67,29,12,11,3e-08,1,15,,,,,,,,
